Assay results as given in patent US12139488B2, “Pyrido[3,2-d]pyrimidine compounds uses thereof for treating a proliferative disease” (Universite de Montreal, priority 2021, dated 2024).

The molecules below were run on pERK in HCT-116 cells (KRAS G13D) (assay: Phospho-ERK inhibition (AlphaLISA SureFire Ultra p-ERK 1/2), HCT116). Settings: HCT116 cells; class symbol.
Type: cell-based, human
Method: All cancer cell lines (A375, A101D, A2058, RKO, HT29 SK-MEL 30, IPC298, HepG2, HCT-116, Lovo, SWV620, SW480, NCI-H358, NCI-H2122, Calu-6, NCIH2087, NCIH1755, NCIH1666 and Mewo) were obtained from ATCC and cultured in RPMI-1640 medium (Gibco) supplemented with 5% heat inactivated fetal bovine serum (FBS, Wisent) at 37° C. under 5% CO2. Cells were maintained in T175 flasks (Greiner). They were passaged by removing the culture medium, washing once in 10 mL of room temperature Phosphate Buffered Saline (PBS; Wisent) and incubating at 37° C. with 2 mL of 0.05% Trypsin (Thermo-Fisher). Trypsin was then inactivated by adding complete growth medium and the cells were then replated in a T175 culture dish at the appropriate dilution. All cell lines were routinely tested for mycoplasma contamination. Tissue type and mutational status of each cell line can be found in Table B.
AlphaLISA® SureFire® Ultra™ p-ERK 1/2 (Thr202/Tyr204) analysis was conducted on cells plated in 100 μL of complete RPMI-1640 growth medium in 96-well flat-bottomed transparent dishes (Costar) at a density indicated in Table C. Cells were maintained overnight at 37° C. under 5% CO2 before treatment with compounds' dilution series for one hour. The cell density in cells/cm^2 corresponds to cell number divided by the area of one well of a 96-well plate ([…]).
In a dilution series 100 μL/well of test substance dilution prepared in complete RPMI-1640 growth media was added to the cells. The dilution series is selected so that ten concentrations cover a range from 10 μM to 0.33 nM. If necessary the initial concentration of 10 μM is increased to 100 μM or lowered to 1 μM (as in the case of A375 and H1666 cells, which are generally more sensitive to the compounds) and further dilution is carried out accordingly. The final concentration of DMSO in the assay is set at 0.5%.
After treatment, media was removed and cells were lysed in 50 μL of 1× AlphaScreen Ultra Lysis Buffer (Perkin Elmer). The AlphaLISA® SureFire® Ultra™ p-ERK 1/2 (Thr202/Tyr2O4) (PerkinElmer) reactions were performed with 5 μL of cell lysate according to the manufacturer's specifications in 384-well proxyplates (Perkin Elmer) followed by overnight incubation of the reactions at room temperature in a humidified chamber. After completion of the reactions, the signals were recorded on an EnVision plate reader (Perkin Elmer) using built in AlphaLISA® settings.
The effect of each compound dilution on the pERK signal was expressed in % inhibition and calculated as follows. An internal 100% inhibition control ([…] trametinib, cat #HY-10999; MedChem Express; CAS #871700-17-3) was included in each plate and used as a measure of pERK background. First, the value obtained for trametinib was subtracted from each data point. The average of DMSO (vehicle) controls (set as 0% inhibition) was established and used to calculate % inhibition: % inhibition=100*(1-((pERK signalcompound)/(pERK signalDMSO)))
The ability of each compound to inhibit pERK signal was expressed as an IC50 value obtained by plotting the inhibition values for each data point of a dilution series and fitting the obtained curves using a log(agonist) versus response-variable slope (four parameters) function using GraphPadPrism (V7.0) or Dotmatics Screening Ultra platform.
When present, paradoxical pERK induction is inferred from the negative % inhibition values observed in the pERK IC50 curves of a compound.

IC50	SMILES
500 to 1000 nM	CC(=O)N1CCCc2nn(-c3ccc4ncnc(Nc5c(F)ccc(NS(=O)(=O)c6cccc(F)c6C)c5F)c4n3)cc21 [Example 357]
< 500 nM	Cc1c(F)cccc1S(=O)(=O)Nc1ccc(F)c(Nc2ncnc3ccc(-n4cnc5c(CC#N)cccc54)nc23)c1F [Example 361]
500 to 1000 nM	Cc1cc(N)ccc1S(=O)(=O)Nc1ccc(F)c(Nc2ncnc3ccc(-n4cnc5c(N)cccc54)nc23)c1F [Example 369]
< 500 nM	Cc1c(F)cccc1S(=O)(=O)Nc1ccc(F)c(Nc2ncnc3ccc(-n4cnc5c(N(CCCO)CCCO)cccc54)nc23)c1F [Example 375]
500 to 1000 nM	COCCN(CCOC)c1cccc2c1ncn2-c1ccc2ncnc(Nc3c(F)ccc(NS(=O)(=O)c4cccc(F)c4C)c3F)c2n1 [Example 376]
1000 to 10000 nM	CC(=O)NCCN1CCCc2nn(-c3ccc4ncnc(Nc5c(F)ccc(NS(=O)(=O)c6cccc(F)c6C)c5F)c4n3)cc21 [Example 383]
1000 to 10000 nM	COCCCN(CCCOC)c1cccc2c1ncn2-c1ccc2ncnc(Nc3c(F)ccc(NS(=O)(=O)c4cccc(F)c4C)c3F)c2n1 [Example 384]
1000 to 10000 nM	Cc1c(F)cccc1S(=O)(=O)Nc1ccc(F)c(Nc2ncnc3ccc(-n4cc5c(n4)CCCN5CCCO)nc23)c1F [Example 391]
1000 to 10000 nM	Cc1c(F)cccc1S(=O)(=O)Nc1ccc(F)c(Nc2ncnc3ccc(-n4cc5c(n4)CCCN5C(=O)CN)nc23)c1F [Example 392]
500 to 1000 nM	CC(=O)N1CCc2cnn(-c3ccc4ncnc(Nc5c(F)ccc(NS(=O)(=O)c6cccc(F)c6C)c5F)c4n3)c2C1 [Example 393]
1000 to 10000 nM	Cc1c(F)cccc1S(=O)(=O)Nc1ccc(F)c(Nc2ncnc3ccc(-n4cnc5c(-c6cnccc6N)cccc54)nc23)c1F [Example 420]
< 500 nM	Cc1c(F)cccc1S(=O)(=O)Nc1ccc(F)c(Nc2ncnc3ccc(-n4cnc5c(-c6cccnc6N)cccc54)nc23)c1F [Example 424]
500 to 1000 nM	Cc1c(F)cccc1S(=O)(=O)Nc1ccc(F)c(Nc2ncnc3ccc(-n4ncc5c4CCCN5CCO)nc23)c1F [Example 425]
< 500 nM	CN(C)CCNS(=O)(=O)c1cn(-c2ccc3ncnc(Nc4c(F)ccc(NS(=O)(=O)c5cccc(Cl)c5Cl)c4F)c3n2)c2ccc(F)cc12 [Example 443]
< 500 nM	CN(C)CCN(C)S(=O)(=O)c1cn(-c2ccc3ncnc(Nc4c(F)ccc(NS(=O)(=O)c5cccc(Cl)c5Cl)c4F)c3n2)c2ccc(F)cc12 [Example 444]
< 500 nM	CC(C)(CO)S(=O)(=O)c1cn(-c2ccc3ncnc(Nc4c(F)ccc(NS(=O)(=O)c5cccc(Cl)c5Cl)c4F)c3n2)c2ccccc12 [Example 447]
< 500 nM	CN(C)CC(C)(C)S(=O)(=O)c1cn(-c2ccc3ncnc(Nc4c(F)ccc(NS(=O)(=O)c5cccc(Cl)c5Cl)c4F)c3n2)c2ccccc12 [Example 456]
< 500 nM	CC(C)(CN1CCOCC1)S(=O)(=O)c1cn(-c2ccc3ncnc(Nc4c(F)ccc(NS(=O)(=O)c5cccc(Cl)c5Cl)c4F)c3n2)c2ccccc12 [Example 457]
< 500 nM	CNCC(C)(C)S(=O)(=O)c1cn(-c2ccc3ncnc(Nc4c(F)ccc(NS(=O)(=O)c5cccc(Cl)c5Cl)c4F)c3n2)c2ccccc12 [Example 461]
500 to 1000 nM	O=S(=O)(Nc1ccc(F)c(Nc2ncnc3ccc(-n4cc(S(=O)(=O)C5CCNCC5)c5ccccc54)nc23)c1F)c1cccc(Cl)c1Cl [Example 465]
< 500 nM	CN1CCC(S(=O)(=O)c2cn(-c3ccc4ncnc(Nc5c(F)ccc(NS(=O)(=O)c6cccc(Cl)c6Cl)c5F)c4n3)c3ccccc23)CC1 [Example 467]

IC50	SMILES
< 500 nM	CC(C)N1CCC(S(=O)(=O)c2cn(-c3ccc4ncnc(Nc5c(F)ccc(NS(=O)(=O)c6cccc(Cl)c6Cl)c5F)c4n3)c3ccccc23)CC1 [Example 468]
< 500 nM	O=S(=O)(Nc1ccc(F)c(Nc2ncnc3ccc(-n4cc(S(=O)(=O)C5CCN(CC6CC6)CC5)c5ccccc54)nc23)c1F)c1cccc(Cl)c1Cl [Example 469]
< 500 nM	O=S(=O)(Nc1ccc(F)c(Nc2ncnc3ccc(-n4cc(S(=O)(=O)C5CCN(C6CCC6)CC5)c5ccccc54)nc23)c1F)c1cccc(Cl)c1Cl [Example 470]
1000 to 10000 nM	CP(C)(=O)c1cn(-c2ccc3ncnc(Nc4c(F)ccc(NS(=O)(=O)c5cccc(Cl)c5Cl)c4F)c3n2)c2ccccc12 [Example 472]
< 500 nM	CC(C)(CC(F)F)S(=O)(=O)c1cn(-c2ccc3ncnc(Nc4c(F)ccc(NS(=O)(=O)c5cccc(Cl)c5Cl)c4F)c3n2)c2ccccc12 [Example 499]
1000 to 10000 nM	O=C(c1cn(-c2ccc3ncnc(Nc4c(F)ccc(NS(=O)(=O)c5cccc(Cl)c5Cl)c4F)c3n2)c2ccccc12)C1CCOC1 (centres unmarked) [Example 500]
1000 to 10000 nM	O=[N+]([O-])c1cn(-c2ccc3ncnc(Nc4c(F)ccc(NS(=O)(=O)c5cccc(Cl)c5Cl)c4F)c3n2)c2ccccc12 [Example 506]
< 500 nM	O=C1CCCN1c1cn(-c2ccc3ncnc(Nc4c(F)ccc(NS(=O)(=O)c5cccc(Cl)c5Cl)c4F)c3n2)c2ccccc12 [Example 511]
1000 to 10000 nM	O=S(=O)(Nc1ccc(F)c(Nc2ncnc3ccc(-n4cnc5c(N6CC[C@@H](O)C6)nccc54)nc23)c1F)c1cccc(Cl)c1Cl [Example 512]
500 to 1000 nM	CCOc1nccc2c1ncn2-c1ccc2ncnc(Nc3c(F)ccc(NS(=O)(=O)c4cccc(Cl)c4Cl)c3F)c2n1 [Example 513]
< 500 nM	O=S(=O)(Nc1ccc(F)c(Nc2ncnc3ccc(-n4cc(N5CCCCS5(=O)=O)c5ccccc54)nc23)c1F)c1cccc(Cl)c1Cl [Example 514]
< 500 nM	CC(C)(C#N)c1cccc2c1ncn2-c1ccc2ncnc(Nc3c(F)ccc(NS(=O)(=O)c4cccc(Cl)c4Cl)c3F)c2n1 [Example 520]
1000 to 10000 nM	CS(=O)(=O)c1cccc2c1ncn2-c1ccc2ncnc(Nc3c(F)ccc(NS(=O)(=O)c4cccc(Cl)c4Cl)c3F)c2n1 [Example 521]
500 to 1000 nM	COCCOc1nccc2c1ncn2-c1ccc2ncnc(Nc3c(F)ccc(NS(=O)(=O)c4cccc(Cl)c4Cl)c3F)c2n1 [Example 522]
500 to 1000 nM	CCOc1cccc2c1ncn2-c1ccc2ncnc(Nc3c(F)ccc(NS(=O)(=O)c4cccc(Cl)c4Cl)c3F)c2n1 [Example 525]
1000 to 10000 nM	Cc1c(F)cccc1S(=O)(=O)Nc1ccc(F)c(Nc2ncnc3ccc(-n4ncc5c4CN(CC(N)=O)CC5)nc23)c1F [Example 531]
1000 to 10000 nM	O=C1CCCCN1c1cn(-c2ccc3ncnc(Nc4c(F)ccc(NS(=O)(=O)c5cccc(Cl)c5Cl)c4F)c3n2)c2ccccc12 [Example 532]
< 500 nM	O=S(=O)(Nc1ccc(F)c(Nc2ncnc3ccc(-n4cc(-c5ccccc5)nn4)nc23)c1F)c1cccc(Cl)c1Cl [Example 534]
500 to 1000 nM	O=S(=O)(Nc1ccc(F)c(Nc2ncnc3ccc(-c4cscn4)nc23)c1F)c1cccc(Cl)c1Cl [Example 536]
< 500 nM	Cc1cn(-c2ccc3ncnc(Nc4c(F)ccc(NS(=O)(=O)c5cccc(Cl)c5Cl)c4F)c3n2)cn1 [Example 553]

SMILES	IC50
Cc1c(F)cccc1S(=O)(=O)Nc1ccc(F)c(Nc2ncnc3ccc(-n4cc5c(n4)CCCN5CCN)nc23)c1F [Example 362]	1000 to 10000 nM
Cc1c(F)cccc1S(=O)(=O)Nc1ccc(F)c(Nc2ncnc3ccc(-n4ncc5c4CN(CCN)CC5)nc23)c1F [Example 415]	500 to 1000 nM
Cc1c(F)cccc1S(=O)(=O)Nc1ccc(F)c(Nc2ncnc3ccc(-n4ncc5c4CCCN5C)nc23)c1F [Example 460]	1000 to 10000 nM
CN(C)CCCS(=O)(=O)c1cn(-c2ccc3ncnc(Nc4c(F)ccc(NS(=O)(=O)c5cccc(Cl)c5Cl)c4F)c3n2)c2ccccc12 [Example 484]	< 500 nM
O=S(=O)(Nc1ccc(F)c(Nc2ncnc3ccc(-n4cc(CC5CCN(CC(F)F)CS5(=O)=O)c5ccccc54)nc23)c1F)c1cccc(Cl)c1Cl (centres unmarked) [Example 488]	< 500 nM
N#CC1(c2cccc3c2ncn3-c2ccc3ncnc(Nc4c(F)ccc(NS(=O)(=O)c5cccc(Cl)c5Cl)c4F)c3n2)CC1 [Example 552]	< 500 nM
